Patent US11504425B2, “Amphiphilic oligodeoxynucleotide conjugates as adjuvant enhancers” (WAYNE STATE UNIVERSITY, priority 2019, dated 2022)

Columns and labels:
human TLR7 (hTLR7) = molecular target: T1, human TLR7 (hTLR7) (Homo sapiens, UniProt Q9NYK1); test: HEK hTLR7 reporter cells NF-κB/SEAP; type: cell-based; details: IMQ at indicated concentrations + 1 μM ODN, 24 h
T1 construct: host or cells: HEK-Blue-hTLR7 (HEK293)
T1 sequence (Q9NYK1 27-1049): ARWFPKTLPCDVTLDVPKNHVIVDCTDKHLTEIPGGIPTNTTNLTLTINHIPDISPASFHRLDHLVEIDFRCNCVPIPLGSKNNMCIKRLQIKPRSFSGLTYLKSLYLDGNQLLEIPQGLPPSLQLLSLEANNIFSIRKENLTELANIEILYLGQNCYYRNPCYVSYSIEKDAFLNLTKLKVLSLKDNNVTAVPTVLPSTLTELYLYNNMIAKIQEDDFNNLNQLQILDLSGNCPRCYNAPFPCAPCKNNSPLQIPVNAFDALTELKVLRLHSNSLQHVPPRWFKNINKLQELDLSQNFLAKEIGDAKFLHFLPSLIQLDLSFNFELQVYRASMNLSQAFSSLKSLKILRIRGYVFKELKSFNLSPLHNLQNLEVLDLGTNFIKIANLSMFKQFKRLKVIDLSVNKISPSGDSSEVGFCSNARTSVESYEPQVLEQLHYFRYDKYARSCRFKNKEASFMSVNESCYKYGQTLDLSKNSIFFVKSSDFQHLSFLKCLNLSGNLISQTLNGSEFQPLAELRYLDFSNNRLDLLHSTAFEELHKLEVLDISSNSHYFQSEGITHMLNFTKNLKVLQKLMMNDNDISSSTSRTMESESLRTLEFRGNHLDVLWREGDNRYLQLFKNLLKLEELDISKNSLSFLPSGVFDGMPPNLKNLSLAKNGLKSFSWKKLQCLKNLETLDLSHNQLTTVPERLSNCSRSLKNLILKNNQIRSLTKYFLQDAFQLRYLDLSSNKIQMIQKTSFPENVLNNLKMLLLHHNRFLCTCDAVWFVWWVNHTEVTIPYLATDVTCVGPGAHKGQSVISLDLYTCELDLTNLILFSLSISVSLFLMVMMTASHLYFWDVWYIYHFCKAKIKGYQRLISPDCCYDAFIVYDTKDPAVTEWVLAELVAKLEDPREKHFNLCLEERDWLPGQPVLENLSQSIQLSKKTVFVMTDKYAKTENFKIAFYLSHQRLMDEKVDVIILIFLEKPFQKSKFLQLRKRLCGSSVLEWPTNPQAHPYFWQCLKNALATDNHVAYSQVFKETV
Method: HEK-Blue™-mTLR7, mTLR8, hTLR7, hTLR8, and RAW-Blue™ cells were purchased from InvivoGen and were used to evaluate bioactivities of lipo ODNs and TLR 7/8 ligands in vitro. All these cell lines were cultured with DMEM supplemented with 10% FBS, 1% P/S and 100 μg/mL Normocin at 37° C. with 5% CO2. […] After incubating for 24 h, SEAP levels were quantified by developing supernatants with QuantiBlue™ substrate for 1 h and reading absorption at 620 nm, following manufacturer's instructions.
HEK293 cells transfected with human TLR7 or 8 were used. The cells were stimulated with IMQ in the presence of several inhibitory oligonucleotides reported in the literature. […] In contrast, all the unmodified ODNs maintained their inhibitory function, reducing the NF-κB secretion to basal levels (FIG. 8A). We then plotted the IMQ dose response curve in human TLR-7 transfected HEK293 cells.

Raw-Blue reporter cells = test: Cellular uptake and confocal imaging in Raw-Blue cells; type: cell-based, murine
Method: DC 2.4 cells were cultured with RPMI-1640 supplemented with 10% FBS and 1% P/S; Raw-Blue cells were cultured as previously described. […] After incubation, cells were washed twice with 1×PBS by centrifuge at 800×g for 5 min prior to flow cytometry quantification. To visualize in vitro cellular uptake, DC 2.4 cells or Raw-Blue cells were cultured and incubated under the same experimental conditions and were subjected to confocal imaging by Zeiss LSM 510 microscope. […] Inhibitors: 5 μg/mL Filipin; 50 μM EIPA; 300 mM sucrose were tested.

Murine splenocytes = test: Cytokine secretion by murine splenocytes (ELISA); type: cell-based, mice; details: 2 μM IMQ + 1 μM ODN, 24 h
Method: Spleens were freshly collected from mice and were cut into small pieces. A plunger end of a syringe was used to further disassemble spleen tissues into single cells. The cell suspension was subsequently filtered and washed. Lysing buffer was utilized to remove excessive red blood cells. After two washes, 95% viability of splenocytes was confirmed by trypan blue. Splenocytes were resuspended in RPMI-1640 supplemented with 10% FBS and 1% P/S. Splenocytes were seeded at 1×10^6 cells/ml in 200 μL in a 96-well plate.
Supernatants collected from splenocytes suspension or human PBMC suspension after incubation were separately analyzed for IL-6, IL-12p40, TNF-α, and IFN-α by ELISA following manufacturer's instructions.

In the case of 5′-TTTTTTTTTTTTTTTTTTTT-3′ [T20], the “IMQ dose response in hTLR7 cells in the presence of the ODN” value (human TLR7 (hTLR7)) is reported as “completely abrogated the immune activation by IMQ”, the colocalization with lysosomes (Raw-Blue reporter cells; 1 μM FAM-labeled ODN, FBS-supplemented and FBS-free, LysoTracker Red) is reported as “colocalized with lysosomes regardless of the presence of FBS” and the “effect on cellular uptake of FITC-labeled IMDQ” value (Raw-Blue reporter cells; 2 μM FITC-IMDQ + 1 μM ODN) is reported as “neither T20 nor lipo T20 increased cellular uptake”. The “IFN-α production induced by IMQ” value (Murine splenocytes) was “decreased the production of IFN-α”, the IL-6 production (Murine splenocytes) was “significantly lower level of pro-inflammatory cytokines compared with IMQ alone” and the IL-12p40 production (Murine splenocytes) was “significantly lower level of pro-inflammatory cytokines compared with IMQ alone”. The TNF-α production (Murine splenocytes) was “significantly lower level of pro-inflammatory cytokines compared with IMQ alone”.
